System: 242566-281-R-J2-PDC complex spheroid viability
Experiment: Anticancer human tumor 242566-281-R-J2-PDC patient-derived pancreatic carcinoma cell line growth inhibition [RAS]
Details: for viability, T/C: stronger effect = lower value; active means viability on the fitted dose curve at most 10% of control; inactive means the rest
Summary of the method: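 Agents were tested in combination matrices in half-log decrements from a top concentration at or near clinical Cmax (10 microM if undetermined). Targets were multi-cell spheroids of tumour lines plus HUVEC and MSC stromal cells.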
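Further: spheroids exposed to compound for 7 days before readout.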
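Wherever viability, T/C is given: 100% = DMSO vehicle control wells.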

CCN1CCN(Cc2ccc(Nc3ncc(F)c(-c4cc(F)c5nc(C)n(C(C)C)c5c4)n3)nc2)CC1 + C#Cc1c(F)ccc2cc(O)cc(-c3ncc4c(N5CC6CCC(C5)N6)nc(OCC56CCCN5CC(F)C6)nc4c3F)c12
inactive: viability, T/C (second compound 0.0316 µM, first compound 0.00316 µM) 110% | viability, T/C (second compound 0.0316 µM, first compound 0.01 µM) 108% | viability, T/C (second compound 0.0316 µM, first compound 0.0316 µM) 85% | viability, T/C (second compound 0.0316 µM, first compound 0.1 µM) 61.7% | viability, T/C (second compound 0.0316 µM, first compound 0.316 µM) 84.9% | viability, T/C (second compound 0.0316 µM, first compound 1 µM) 99% | viability, T/C (second compound 0.1 µM, first compound 0.00316 µM) 95% | viability, T/C (second compound 0.1 µM, first compound 0.01 µM) 81.1% | viability, T/C (second compound 0.1 µM, first compound 0.0316 µM) 77.5% | viability, T/C (second compound 0.1 µM, first compound 0.1 µM) 56.5% | viability, T/C (second compound 0.1 µM, first compound 0.316 µM) 76% | viability, T/C (second compound 0.1 µM, first compound 1 µM) 85.2% | viability, T/C (second compound 0.316 µM, first compound 0.00316 µM) 79.9% | viability, T/C (second compound 0.316 µM, first compound 0.01 µM) 72% | viability, T/C (second compound 0.316 µM, first compound 0.0316 µM) 46.7% | viability, T/C (second compound 0.316 µM, first compound 0.1 µM) 51.9% | viability, T/C (second compound 0.316 µM, first compound 0.316 µM) 72% | viability, T/C (second compound 0.316 µM, first compound 1 µM) 87.3% | viability, T/C (second compound 1 µM, first compound 0.00316 µM) 64.5% | viability, T/C (second compound 1 µM, first compound 0.01 µM) 62.1% | viability, T/C (second compound 1 µM, first compound 0.0316 µM) 50.5% | viability, T/C (second compound 1 µM, first compound 0.1 µM) 43.5% | viability, T/C (second compound 1 µM, first compound 0.316 µM) 63.3% | viability, T/C (second compound 1 µM, first compound 1 µM) 77.1% | viability, T/C (second compound 3.16 µM, first compound 0.00316 µM) 56.6% | viability, T/C (second compound 3.16 µM, first compound 0.01 µM) 47.2% | viability, T/C (second compound 3.16 µM, first compound 0.0316 µM) 31.6% | viability, T/C (second compound 3.16 µM, first compound 0.1 µM) 37.3% | viability, T/C (second compound 3.16 µM, first compound 0.316 µM) 58.5% | viability, T/C (second compound 3.16 µM, first compound 1 µM) 72.4% | viability, T/C (second compound 10 µM, first compound 0.00316 µM) 54.3% | viability, T/C (second compound 10 µM, first compound 0.01 µM) 48.2% | viability, T/C (second compound 10 µM, first compound 0.0316 µM) 40.1% | viability, T/C (second compound 10 µM, first compound 0.1 µM) 37.6% | viability, T/C (second compound 10 µM, first compound 0.316 µM) 51.7% | viability, T/C (second compound 10 µM, first compound 1 µM) 63.1%
> 1 µM: IC50 (curve of first compound, second compound 0.0316 µM) | IC50 (curve of first compound, second compound 0.1 µM) | IC50 (curve of first compound, second compound 0.316 µM)
< 0.00316 µM: IC50 (curve of first compound, second compound 3.16 µM) | IC50 (curve of first compound, second compound 10 µM)
0.00316 µM: IC50 (curve of first compound, second compound 1 µM)

CC(C)NCC(C(=O)N1CCN(c2ncnc3c2C(C)CC3O)CC1)c1ccc(Cl)cc1 (centres undefined)
inactive: viability, T/C (compound 0.0316 µM) 104% [middle of 4 runs] | viability, T/C (compound 0.1 µM) 106% [middle of 4 runs] | viability, T/C (compound 0.316 µM) 103% [middle of 4 runs] | viability, T/C (compound 1 µM) 101% [middle of 4 runs]
> 10 µM: IC50 (curve of compound)

NC1c2ccccc2OC12CCN(c1cnc3c(N4CCCc5ncccc54)n[nH]c3n1)CC2 (centres undefined) + CCn1c(-c2cccnc2C(C)OC)c2c3cc(ccc31)N1CCOC(CC(NC(=O)C(C(C)C)N(C)C(=O)C3(F)CCN(C(=O)C#CC(C)(C)N(C)C)CC3)C(=O)N3CCCC(N3)C(=O)OCC(C)(C)C2)C1
1.12 µM: IC50 (curve of first compound, second compound 0.0949 µM)
3.21 µM: IC50 (curve of first compound, second compound 0.00949 µM)
inactive: viability, T/C (second compound 0.000949 µM, first compound 0.0316 µM) 89.6% | viability, T/C (second compound 0.000949 µM, first compound 0.1 µM) 80.3% | viability, T/C (second compound 0.000949 µM, first compound 0.316 µM) 54.3% | viability, T/C (second compound 0.000949 µM, first compound 1 µM) 64.5% | viability, T/C (second compound 0.000949 µM, first compound 3.16 µM) 57.4% | viability, T/C (second compound 0.000949 µM, first compound 10 µM) 28.6% | viability, T/C (second compound 0.003 µM, first compound 0.0316 µM) 92.4% | viability, T/C (second compound 0.003 µM, first compound 0.1 µM) 76.2% | viability, T/C (second compound 0.003 µM, first compound 0.316 µM) 62.7% | viability, T/C (second compound 0.003 µM, first compound 1 µM) 62.4% | viability, T/C (second compound 0.003 µM, first compound 3.16 µM) 54.4% | viability, T/C (second compound 0.003 µM, first compound 10 µM) 25.5% | viability, T/C (second compound 0.00949 µM, first compound 0.0316 µM) 82.3% | viability, T/C (second compound 0.00949 µM, first compound 0.1 µM) 77.1% | viability, T/C (second compound 0.00949 µM, first compound 0.316 µM) 69.1% | viability, T/C (second compound 0.00949 µM, first compound 1 µM) 64.6% | viability, T/C (second compound 0.00949 µM, first compound 3.16 µM) 51.9% | viability, T/C (second compound 0.00949 µM, first compound 10 µM) 28.3% | viability, T/C (second compound 0.03 µM, first compound 0.0316 µM) 91% | viability, T/C (second compound 0.03 µM, first compound 0.1 µM) 81.3% | viability, T/C (second compound 0.03 µM, first compound 0.316 µM) 69.8% | viability, T/C (second compound 0.03 µM, first compound 1 µM) 59.6% | viability, T/C (second compound 0.03 µM, first compound 3.16 µM) 41.1% | viability, T/C (second compound 0.03 µM, first compound 10 µM) 36.8% | viability, T/C (second compound 0.0949 µM, first compound 0.0316 µM) 75.1% | viability, T/C (second compound 0.0949 µM, first compound 0.1 µM) 71.7% | viability, T/C (second compound 0.0949 µM, first compound 0.316 µM) 62% | viability, T/C (second compound 0.0949 µM, first compound 1 µM) 55% | viability, T/C (second compound 0.0949 µM, first compound 3.16 µM) 33.3% | viability, T/C (second compound 0.0949 µM, first compound 10 µM) 26.5% | viability, T/C (second compound 0.3 µM, first compound 0.0316 µM) 68.2% | viability, T/C (second compound 0.3 µM, first compound 0.1 µM) 56.4% | viability, T/C (second compound 0.3 µM, first compound 0.316 µM) 52.8% | viability, T/C (second compound 0.3 µM, first compound 1 µM) 38.9% | viability, T/C (second compound 0.3 µM, first compound 3.16 µM) 33.5% | viability, T/C (second compound 0.3 µM, first compound 10 µM) 21.1%
1.85 µM: IC50 (curve of first compound, second compound 0.03 µM)
2.04 µM: IC50 (curve of first compound, second compound 0.003 µM)
2.28 µM: IC50 (curve of first compound, second compound 0.000949 µM)
0.329 µM: IC50 (curve of first compound, second compound 0.3 µM)
